Measured values taken from patent publication US20220213113A1, “NITROGEN-CONTAINING CONDENSED CYCLIC COMPOUNDS, FLUORESCENCE EMITTERS, ORGANIC ELECTROLUMINESCENT DEVICES, AND MATERIALS FOR ORGANIC ELECTROLUMINESCENT DEVICES” (Samsung Electronics Co., Ltd., priority 2020, published 2022).
Values after ≈ are worked out from the molar mass of the structure shown.

Experiment: Evaluation of solubility in mesitylene
Assay type: physicochemical
Settings: organic solvent or mixture, thermodynamic from solid; 10 mg compound in test tube, heated at 160° C., mesitylene added until completely dissolved
Protocol: 10 mg of the obtained Compounds D1 to D9 and Comparative Compound C1 were each placed in a test tube, mesitylene was added thereto, and were heated at a temperature of 160° C. Mesitylene was added thereto until the compounds were completely dissolved and the solubility was calculated.

solubility [mg/mL] | Compound
1.3 (≈ 1.94 mM) | CC(C)(C)c1ccc(-c2ccc3c(c2)c2c4c5ccccc5n5c6ccc(-c7ccc(C(C)(C)C)cc7)cc6c(c6c7ccccc7n3c62)c45)cc1 [Compound D2]
1 (≈ 1.5 mM) | CC(C)(C)c1ccc(-c2ccc3c4c5c6ccccc6n6c7cc(-c8ccc(C(C)(C)C)cc8)ccc7c(c7c8ccccc8n(c3c2)c74)c56)cc1 [Compound D3]
3.1 (≈ 3.6 mM) | c1ccc(-c2cccc(-c3ccccc3)c2-c2ccc3c4c5c6ccccc6n6c7cc(-c8c(-c9ccccc9)cccc8-c8ccccc8)ccc7c(c7c8ccccc8n(c3c2)c74)c56)cc1 [Compound D7]
3 (≈ 3.21 mM) | CC(C)(C)c1cc(-c2ccc3c4c5c6cccc(-c7ccccc7)c6n6c7cc(-c8cc(C(C)(C)C)cc(C(C)(C)C)c8)ccc7c(c7c8cccc(-c9ccccc9)c8n(c3c2)c47)c56)cc(C(C)(C)C)c1 [Compound D9]

The remaining lines, values behind:

Compound | solubility [mg/mL]
Cc1cc(C)c(-c2ccc3c(c2)c2c4c5ccccc5n5c6ccc(-c7c(C)cc(C)cc7C)cc6c(c6c7ccccc7n3c62)c45)c(C)c1 [Compound D1] | 2 (≈ 3.12 mM)
CC(C)(C)c1cc(-c2ccc3c4c5c6ccccc6n6c7cc(-c8cc(C(C)(C)C)cc(C(C)(C)C)c8)ccc7c(c7c8ccccc8n(c3c2)c74)c56)cc(C(C)(C)C)c1 [Compound D4] | 3.2 (≈ 4.1 mM)
CC(C)(C)c1cc(-c2ccc3c4c5c6ccc(C(C)(C)C)cc6n6c7cc(-c8cc(C(C)(C)C)cc(C(C)(C)C)c8)ccc7c(c7c8ccc(C(C)(C)C)cc8n(c3c2)c47)c56)cc(C(C)(C)C)c1 [Compound D5] | 10.1 (≈ 11.3 mM)
CC(C)(C)c1cc(-c2ccc3c4c5c6cc(C(C)(C)C)ccc6n6c7cc(-c8cc(C(C)(C)C)cc(C(C)(C)C)c8)ccc7c(c7c8cc(C(C)(C)C)ccc8n(c3c2)c74)c56)cc(C(C)(C)C)c1 [Compound D6] | 1 (≈ 1.12 mM)
CC(C)(C)c1cc(-c2cccc3c4c5c6ccccc6n6c7c(-c8cc(C(C)(C)C)cc(C(C)(C)C)c8)cccc7c(c7c8ccccc8n(c23)c74)c56)cc(C(C)(C)C)c1 [Compound D8] | 10.3 (≈ 13.2 mM)
